Data published in patent US10442803B2, “Tricyclic heterocycles as bet protein inhibitors” (Incyte Corporation, priority 2013, dated 2019).
Where a name gives a salt, the structure may show the parent alone. Read-outs that look alike come from different tables or passages of the source.

Tested on: KMS.12.BM cells
Test: KMS.12.BM cell viability assay
Format: cell-based
Details: KMS.12.BM human myeloma cells, 3 days, Cell Titer-GLO ATP quantitation, read-out: KMS cellular IC50
Procedure, shortened: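 Human myeloma KMS.12.BM cells, 5000 per well in RPMI/10% FBS, exposed 3 days to compound concentration range. Viability from ATP-based Cell Titer-GLO luminescence; IC50 derived.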

Compound | IC50 (72 h) [nM] | IC50 [nM]
Cc1nnc2ccc3c(cc(-c4ccn(CCC(=O)N5CCOCC5)n4)n3Cc3cccc(Cl)c3)n12 [Example 169, 6-(3-Chlorobenzyl)-1-methyl-7-[1-(3-morpholin-4-yl-3-oxopropyl)-1H-pyrazol-3-yl]-6H-pyrrolo[2,3-e][1,2,4]triazolo[4,3-a]pyridine trifluoroacetate salt] | ≤ 1000 | 
Cc1nnc2ccc3c(cc(-c4ccn(CCC(=O)NC5CCOCC5)n4)n3Cc3cccc(Cl)c3)n12 [Example 170, 3-{3-[6-(3-Chlorobenzyl)-1-methyl-6H-pyrrolo[2,3-e][1,2,4]triazolo[4,3-a]pyridin-7-yl]-1H-pyrazol-1-yl}-N-(tetrahydro-2H-pyran-4-yl)propanamide trifluoroacetate salt] | ≤ 1000 | 
Cc1nnc2ccc3c(cc(-c4ccn(CCC(=O)NC5CN(C)C5)n4)n3Cc3cccc(Cl)c3)n12 [Example 171, 3-{3-[6-(3-Chlorobenzyl)-1-methyl-6H-pyrrolo[2,3-e][1,2,4]triazolo[4,3-a]pyridin-7-yl]-1H-pyrazol-1-yl}-N-(1-methylazetidin-3-yl)propanamide bis(trifluoroacetate) salt] | ≤ 1000 | 
Cc1nnc2ccc3c(cc(-c4c[nH]cn4)n3Cc3cccc(Cl)c3)n12 [Example 172, 6-(3-Chlorobenzyl)-7-(1H-imidazol-4-yl)-1-methyl-6H-pyrrolo[2,3-e][1,2,4]triazolo[4,3-a]pyridine bis(trifluoroacetate) salt] | ≤ 1000 | 
Cc1nnc2ccc3c(cc(-c4ccn(CCCO)n4)n3Cc3cccc(Cl)c3)n12 [Example 173, 3-{3-[6-(3-Chlorobenzyl)-1-methyl-6H-pyrrolo[2,3-e][1,2,4]triazolo[4,3-a]pyridin-7-yl]-1H-pyrazol-1-yl}propan-1-ol trifluoroacetate salt] | ≤ 1000 | 
CNC(=O)CCn1ccc(-c2cc3c(ccc4nnc(C)n43)n2Cc2cccc(Cl)c2)n1 [Example 174, 3-{3-[6-(3-Chlorobenzyl)-1-methyl-6H-pyrrolo[2,3-e][1,2,4]triazolo[4,3-a]pyridin-7-yl]-1H-pyrazol-1-yl}-N-methylpropanamide trifluoroacetate salt] | ≤ 1000 | 
CCNC(=O)CCn1ccc(-c2cc3c(ccc4nnc(C)n43)n2Cc2cccc(Cl)c2)n1 [Example 175, 3-{3-[6-(3-Chlorobenzyl)-1-methyl-6H-pyrrolo[2,3-e][1,2,4]triazolo[4,3-a]pyridin-7-yl]-1H-pyrazol-1-yl}-N-ethylpropanamide trifluoroacetate salt] | ≤ 1000 | 
Cc1nnc2ccc3c(cc(-c4ccn(CCC(=O)NC(C)(C)C)n4)n3Cc3cccc(Cl)c3)n12 [Example 176, N-(tert-Butyl)-3-{3-[6-(3-chlorobenzyl)-1-methyl-6H-pyrrolo[2,3-e][1,2,4]triazolo[4,3-a]pyridin-7-yl]-1H-pyrazol-1-yl}propanamide trifluoroacetate salt] | ≤ 1000 | 
Cc1nnc2ccc3c(cc(-c4ccn(C5COC5)n4)n3Cc3cccc(Cl)c3)n12 [Example 177, 6-(3-Chlorobenzyl)-1-methyl-7-(1-oxetan-3-yl-1H-pyrazol-3-yl)-6H-pyrrolo[2,3-e][1,2,4]triazolo[4,3-a]pyridine trifluoroacetate salt] | ≤ 1000 | 
Cc1nnc2ccc3c(cc(-c4ccn(CCO)n4)n3Cc3cccc(Cl)c3)n12 [Example 178, 2-{3-[6-(3-Chlorobenzyl)-1-methyl-6H-pyrrolo[2,3-e][1,2,4]triazolo[4,3-a]pyridin-7-yl]-1H-pyrazol-1-yl}ethanol trifluoroacetate salt] | ≤ 1000 | 
Cc1nnc2ccc3c(cc(-c4ccn(C5CN(CCO)C5)n4)n3Cc3cccc(Cl)c3)n12 [Example 179, 2-(3-{3-[6-(3-Chlorobenzyl)-1-methyl-6H-pyrrolo[2,3-e][1,2,4]triazolo[4,3-a]pyridin-7-yl]-1H-pyrazol-1-yl}azetidin-1-yl)ethanol bis(trifluoroacetate) salt] | ≤ 1000 | 
Cc1nnc2ccc3c(cc(-c4ccn(C5CN(C)C5)n4)n3Cc3cccc(Cl)c3)n12 [Example 180, 6-(3-Chlorobenzyl)-1-methyl-7-[1-(1-methylazetidin-3-yl)-1H-pyrazol-3-yl]-6H-pyrrolo[2,3-e][1,2,4]triazolo[4,3-a]pyridine bis(trifluoroacetate) salt] | ≤ 1000 | 
Cc1nnc2ccc3c(cc(-c4ccn(C5CN(CCC#N)C5)n4)n3Cc3cccc(Cl)c3)n12 [Example 181, 3-(3-{3-[6-(3-Chlorobenzyl)-1-methyl-6H-pyrrolo[2,3-e][1,2,4]triazolo[4,3-a]pyridin-7-yl]-1H-pyrazol-1-yl}azetidin-1-yl)propanenitrile bis(trifluoroacetate) salt] | ≤ 1000 | 
Cc1nnc2ccc3c(cc(-c4cc[nH]n4)n3Cc3cccc(CN4CCC4)c3)n12 [Example 182, 6-[3-(Azetidin-1-ylmethyl)benzyl]-1-methyl-7-(1H-pyrazol-3-yl)-6H-pyrrolo[2,3-e][1,2,4]triazolo[4,3-a]pyridine tris(trifluoroaceate) salt] |  | ≤ 1000
Cc1nnc2ccc3c(cc(-c4ccn(CCC#N)n4)n3Cc3cccc(CN4CCC4)c3)n12 [Example 183, 3-(3-{6-[3-(Azetidin-1-ylmethyl)benzyl]-1-methyl-6H-pyrrolo[2,3-e][1,2,4]triazolo[4,3-a]pyridin-7-yl}-1H-pyrazol-1-yl)propanenitrile bis(trifluoroacetate) salt] | ≤ 1000 | 
Cc1nnc2ccc3c(cc(-c4ccn(C)n4)n3Cc3cccc(CN4CCC4)c3)n12 [Example 184, 6-[3-(Azetidin-1-ylmethyl)benzyl]-1-methyl-7-(1-methyl-1H-pyrazol-3-yl)-6H-pyrrolo[2,3-e][1,2,4]triazolo[4,3-a]pyridine bis(trifluoroacetate) salt] | ≤ 1000 | 
Cc1nnc2ccc3c(cc(-c4ccn(C)n4)n3Cc3cc(Cl)cc(CN4CCC4)c3)n12 [Example 185, 6-[3-(Azetidin-1-ylmethyl)-5-chlorobenzyl]-1-methyl-7-(1-methyl-1H-pyrazol-3-yl)-6H-pyrrolo[2,3-e][1,2,4]triazolo[4,3-a]pyridine tris(trifluoroacetate) salt] | ≤ 1000 | 
CCn1ccc(-c2cc3c(ccc4nnc(C)n43)n2Cc2cc(Cl)cc(CN3CCC3)c2)n1 [Example 188, 6-(3-(Azetidin-1-ylmethyl)-5-chlorobenzyl)-7-(1-ethyl-1H-pyrazol-3-yl)-1-methyl-6H-pyrrolo[2,3-e][1,2,4]triazolo[4,3-a]pyridine tris(trifluoroacetate) salt] | ≤ 1000 | 
CCn1ccc(-c2cc3c(ccc4nnc(C)n43)n2Cc2cc(Cl)cc(CN3CCCC3)c2)n1 [Example 189, 6-(3-Chloro-5-(pyrrolidin-1-ylmethyl)benzyl)-7-(1-ethyl-1H-pyrazol-3-yl)-1-methyl-6H-pyrrolo[2,3-e][1,2,4]triazolo[4,3-a]pyridine tris(trifluoroacetate) salt] | ≤ 1000 | 
Cc1nnc2ccc3c(cc(-c4ccn(C)n4)n3Cc3cc(Cl)cc(CN4CCCC4)c3)n12 [Example 190, 6-[3-Chloro-5-(pyrrolidin-1-ylmethyl)benzyl]-1-methyl-7-(1-methyl-1H-pyrazol-3-yl)-6H-pyrrolo[2,3-e][1,2,4]triazolo[4,3-a]pyridine bis(trifluoroacetate) salt] | ≤ 1000 | 
Cc1nnc2ccc3c(cc(-c4ccn(C)n4)n3Cc3cc(Cl)cc(CN(C)C)c3)n12 [Example 191, 1-(3-Chloro-5-{[1-methyl-7-(1-methyl-1H-pyrazol-3-yl)-6H-pyrrolo[2,3-e][1,2,4]triazolo[4,3-a]pyridin-6-yl]methyl}phenyl)-N,N-dimethylmethanamine bis(trifluoroacetate) salt] | ≤ 1000 | 
Cc1nnc2ccc3c(cc(-c4ccn(C)n4)n3Cc3cc(Cl)cc(CN4CCOCC4)c3)n12 [Example 192, 6-[3-Chloro-5-(morpholin-4-ylmethyl)benzyl]-1-methyl-7-(1-methyl-1H-pyrazol-3-yl)-6H-pyrrolo[2,3-e][1,2,4]triazolo[4,3-a]pyridine bis(trifluoroacetate) salt] | ≤ 1000 | 
Cc1nnc2ccc3c(cc(C4=NCCO4)n3Cc3cccc(Cl)c3)n12 [Example 193, 6-(3-Chlorobenzyl)-7-(4,5-dihydro-1,3-oxazol-2-yl)-1-methyl-6H-pyrrolo[2,3-e][1,2,4]triazolo[4,3-a]pyridine] | ≤ 1000 | 
Cc1nnc2ccc3c(cc(-c4ncco4)n3Cc3cccc(Cl)c3)n12 [Example 194, 6-(3-Chlorobenzyl)-1-methyl-7-(1,3-oxazol-2-yl)-6H-pyrrolo[2,3-e][1,2,4]triazolo[4,3-a]pyridine trifluoroacetate salt] | ≤ 1000 | 
Cc1nnc2ccc3c(cc(-c4ncco4)n3Cc3cc(Cl)cc(CN4CCC4)c3)n12 [Example 195, 6-[3-(Azetidin-1-ylmethyl)-5-chlorobenzyl]-1-methyl-7-(1,3-oxazol-2-yl)-6H-pyrrolo[2,3-e][1,2,4]triazolo[4,3-a]pyridine bis(trifluoroacetate) salt] | ≤ 1000 | 
Cc1nnc2ccc3c(cc(-c4ncco4)n3Cc3cc(Cl)cc(CN4CC(C)(C)C4)c3)n12 [Example 196, 6-{3-Chloro-5-[(3,3-dimethylazetidin-1-yl)methyl]benzyl}-1-methyl-7-(1,3-oxazol-2-yl)-6H-pyrrolo[2,3-e][1,2,4]triazolo[4,3-a]pyridine bis(trifluoroacetate) salt] | ≤ 1000 | 
Cc1nnc2ccc3c(cc(-c4ncco4)n3Cc3cc(Cl)cc(CN4CCCC4)c3)n12 [Example 197, 6-[3-Chloro-5-(pyrrolidin-1-ylmethyl)benzyl]-1-methyl-7-(1,3-oxazol-2-yl)-6H-pyrrolo[2,3-e][1,2,4]triazolo[4,3-a]pyridine bis(trifluoroacetate) salt] | ≤ 1000 | 
Cc1nnc2ccc3c(cc(-c4ncco4)n3Cc3cc(Cl)cc(CN4CC(O)C4)c3)n12 [Example 198, 1-(3-Chloro-5-{[1-methyl-7-(1,3-oxazol-2-yl)-6H-pyrrolo[2,3-e][1,2,4]triazolo[4,3-a]pyridin-6-yl]methyl}benzyl)azetidin-3-ol bis(trifluoroacetate) salt] | ≤ 1000 | 
